This is an account of results in the supplement of paper PMC10307832.

Holding throughout (assay): relative viability (nuclei count vs DMSO), 5 days (fraction); higher = more cells survive
Compound in test [1]: CN[C@@H]1C[C@H]2O[C@@](C)([C@@H]1OC)n1c3ccccc3c3c4c(c5c6ccccc6n2c5c31)C(=O)NC4 [Staurosporine] + Nc1ncn([C@H]2C[C@H](O)[C@@H](CO)O2)c(=O)n1 [Decitabine] (partner 2 µM)
The essentials:
(§1)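 Lung cancer cell lines in 1536-well plates were dosed by pin tool the day after seeding, either with one drug alone or with a fixed anchor-drug dose plus five library-drug doses (not always all listed) in √10 steps. After 5 days, cells were fixed and their nuclei stained in one step (final 0.05% Triton X-100, 1% formaldehyde, 1 ug/ml Hoechst), then counted on 4× images. Relative viability is the nuclei count in treated wells divided by that in vehicle wells. Values are medians of duplicate plates.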

Compound in test [2]: O=c1[nH]cc(F)c(=O)[nH]1 [5-Fluorouracil] + CC(C)C[C@H](NC(=O)[C@H](Cc1ccccc1)NC(=O)c1cnccn1)B(O)O [Bortezomib] (partner 0.002 µM)
The essentials:
as §1

Compound in test [3]: CN[C@@H]1C[C@H]2O[C@@](C)([C@@H]1OC)n1c3ccccc3c3c4c(c5c6ccccc6n2c5c31)C(=O)NC4 [Staurosporine] + O=C(CCCCCCC(=O)Nc1ccccc1)NO [Vorinostat] (partner 1 µM)
The essentials: as §1

Compound in test [4]: CC1=C(CC(=O)O)c2cc(F)ccc2/C1=C\c1ccc([S+](C)[O-])cc1 [Sulindac] + CCNC(=O)c1noc(-c2cc(C(C)C)c(O)cc2O)c1-c1ccc(CN2CCOCC2)cc1 [Luminespib] (partner 0.01 µM)
The method, boiled down:
as §1

In the case of NCI-H1993, the relative viability in test [1] (first compound 0.005 µM) was found to be 0.665; in test [1] (first compound 0.01581 µM), 0.604; in test [1] (first compound 0.05 µM), 0.573; in test [1] (first compound 0.1581 µM), 0.44; in test [1] (first compound 0.5 µM) it was 0.354; in test [2] (first compound 0.02 µM), 1.36. The relative viability in test [2] (first compound 0.2 µM) amounted to 0.919; in test [2] (first compound 0.6325 µM), 0.658; in test [2] (first compound 2 µM), 0.559; in test [3] (first compound 0.005 µM) it was 0.588; in test [3] (first compound 0.01581 µM), 0.275; in test [3] (first compound 0.05 µM), 0.475. The relative viability in test [3] (first compound 0.1581 µM) came to 0.344; in test [3] (first compound 0.5 µM) it was 0.232; in test [4] (first compound 0.08 µM) it was 0.718; in test [4] (first compound 0.253 µM), 0.774; in test [4] (first compound 0.8 µM) it was 0.645; in test [4] (first compound 2.53 µM), 0.961. Also, the relative viability in test [4] (first compound 8 µM) was found to be 0.988.

For NCI-H2009, the relative viability in test [1] (first compound 0.005 µM) stood at 0.331; in test [1] (first compound 0.01581 µM), 0.272; in test [1] (first compound 0.05 µM) it was 0.196; in test [1] (first compound 0.1581 µM), 0.172; in test [1] (first compound 0.5 µM), 0.0871; in test [2] (first compound 0.02 µM) it was 1.04. Besides, the relative viability stood at 1.01 in test [2] (first compound 0.2 µM); 0.722 in test [2] (first compound 0.6325 µM); 0.463 in test [2] (first compound 2 µM); 0.576 in test [3] (first compound 0.005 µM); 0.185 in test [3] (first compound 0.01581 µM); 0.166 in test [3] (first compound 0.05 µM). Moreover, the relative viability was 0.109 in test [3] (first compound 0.1581 µM); 0.0558 in test [3] (first compound 0.5 µM); 1.15 in test [4] (first compound 0.08 µM); 1.01 in test [4] (first compound 0.253 µM); 1.05 in test [4] (first compound 0.8 µM); 0.986 in test [4] (first compound 2.53 µM). Moreover, the relative viability in test [4] (first compound 8 µM) came out at 1.15.

Take NCI-H2023: the relative viability in test [1] (first compound 0.005 µM) came out at 0.218; in test [1] (first compound 0.01581 µM), 0.162; in test [1] (first compound 0.05 µM) it was 0.116; in test [1] (first compound 0.1581 µM), 0.0753; in test [1] (first compound 0.5 µM), 0.0615; in test [2] (first compound 0.02 µM) it was 0.803. The relative viability was 0.214 in test [2] (first compound 0.2 µM); 0.11 in test [2] (first compound 0.6325 µM); 0.0857 in test [2] (first compound 2 µM); 0.313 in test [3] (first compound 0.005 µM); 0.14 in test [3] (first compound 0.01581 µM); 0.0786 in test [3] (first compound 0.05 µM). In addition, the relative viability in test [3] (first compound 0.1581 µM) stood at 0.0748; in test [3] (first compound 0.5 µM) it was 0.0408; in test [4] (first compound 0.08 µM), 0.923; in test [4] (first compound 0.253 µM) it was 0.845; in test [4] (first compound 2.53 µM), 0.649; in test [4] (first compound 8 µM) it was 0.92.

Regarding NCI-H2085, the relative viability was found to be 0.527 in test [1] (first compound 0.005 µM); 0.4 in test [1] (first compound 0.01581 µM); 0.463 in test [1] (first compound 0.05 µM); 0.364 in test [1] (first compound 0.1581 µM); 0.352 in test [1] (first compound 0.5 µM); 1.09 in test [2] (first compound 0.02 µM). Also, the relative viability in test [2] (first compound 0.2 µM) was 1.13; in test [2] (first compound 0.6325 µM), 0.995; in test [2] (first compound 2 µM), 0.738; in test [3] (first compound 0.005 µM) it was 0.58; in test [3] (first compound 0.01581 µM), 0.296; in test [3] (first compound 0.05 µM), 0.407. Besides, the relative viability came out at 0.229 in test [3] (first compound 0.1581 µM); 0.183 in test [3] (first compound 0.5 µM); 0.39 in test [4] (first compound 0.08 µM); 0.414 in test [4] (first compound 0.253 µM); 0.426 in test [4] (first compound 0.8 µM); 0.428 in test [4] (first compound 2.53 µM). Also, the relative viability in test [4] (first compound 8 µM) stood at 0.36.

Take NCI-H2087: the relative viability worked out at 0.28 in test [1] (first compound 0.005 µM); 0.141 in test [1] (first compound 0.01581 µM); 0.094 in test [1] (first compound 0.05 µM); 0.0598 in test [1] (first compound 0.1581 µM); 0.0694 in test [1] (first compound 0.5 µM); 0.884 in test [2] (first compound 0.02 µM). In addition, the relative viability in test [2] (first compound 0.2 µM) was 0.757; in test [2] (first compound 0.6325 µM) it was 0.599; in test [2] (first compound 2 µM), 0.497; in test [3] (first compound 0.005 µM), 0.628; in test [3] (first compound 0.01581 µM), 0.407; in test [3] (first compound 0.05 µM), 0.354. In addition, the relative viability in test [3] (first compound 0.1581 µM) is 0.0753; in test [3] (first compound 0.5 µM), 0.0552; in test [4] (first compound 0.08 µM), 0.196; in test [4] (first compound 0.253 µM), 0.164; in test [4] (first compound 2.53 µM), 0.148; in test [4] (first compound 8 µM), 0.167.

For NCI-H2126, the relative viability was 0.612 in test [1] (first compound 0.005 µM); 0.521 in test [1] (first compound 0.01581 µM); 0.468 in test [1] (first compound 0.05 µM); 0.43 in test [1] (first compound 0.1581 µM); 0.363 in test [1] (first compound 0.5 µM); 0.948 in test [2] (first compound 0.02 µM). Further, the relative viability in test [2] (first compound 0.2 µM) amounted to 0.583; in test [2] (first compound 0.6325 µM) it was 0.337; in test [2] (first compound 2 µM), 0.318; in test [3] (first compound 0.005 µM) it was 0.784; in test [3] (first compound 0.01581 µM), 0.201; in test [3] (first compound 0.05 µM), 0.426. The relative viability in test [3] (first compound 0.1581 µM) stood at 0.233; in test [4] (first compound 0.08 µM), 0.963; in test [4] (first compound 0.253 µM), 0.804; in test [4] (first compound 0.8 µM), 0.888; in test [4] (first compound 2.53 µM), 0.991; in test [4] (first compound 8 µM), 0.955.

With NCI-H2347, the relative viability in test [1] (first compound 0.005 µM) came to 0.527; in test [1] (first compound 0.01581 µM), 0.406; in test [1] (first compound 0.05 µM) it was 0.384; in test [1] (first compound 0.1581 µM) it was 0.309; in test [1] (first compound 0.5 µM), 0.323; in test [2] (first compound 0.02 µM), 0.962. In addition, the relative viability turned out to be 1.1 in test [2] (first compound 0.2 µM); 0.367 in test [2] (first compound 0.6325 µM); 0.446 in test [2] (first compound 2 µM); 0.409 in test [3] (first compound 0.005 µM); 0.378 in test [3] (first compound 0.01581 µM); 0.274 in test [3] (first compound 0.05 µM). In addition, the relative viability in test [3] (first compound 0.1581 µM) is 0.264; in test [3] (first compound 0.5 µM), 0.228; in test [4] (first compound 0.08 µM) it was 0.302; in test [4] (first compound 0.253 µM) it was 0.478; in test [4] (first compound 2.53 µM), 0.411; in test [4] (first compound 8 µM) it was 0.519.
